Data from article PMC8528301 (PLoS ONE, 2021).
Values joined by “and” are separate entries in the source; they are usually repeats but may differ in a detail not shown here. Equal values may be shown once.

Columns and labels:
[1] = Repeated discontinuous oral DEX PK study (another 60 mice); format: in vivo, mouse; settings: for share of mice with measurable DEX / share of mice with DEX plasma concentration below LLOQ: Days 3.5+10.5; for share of mice with DEX plasma concentration below LLOQ: LLOQ = 5 nM; for concentration at 3.5 day / concentration at 10.5 day / concentration at 17.5 day: 8 mg/L, Average ± S.D. of quantifiable samples
Protocol: (§1) 1 g/L of tetracycline (Sigma-Aldrich Inc, St. Louis, MO, USA) was added during both phases. Assuming that mice drink 5 mL of water per day, the dose they receive would be 1.6–2 mg/kg/day. […] At the end of in vivo procedures, all plasma samples were transferred from dry ice and stored at –80°C until analysis.

in vivo = settings: female, C57BL/6, mouse, plasma, po, 2 mg/kg
Protocol: Blood was collected via saphenous/retro-orbital vein at time points: 0.25, 0.75, 0.5, 1, 1.5, 2, 4, 8, 16 hours after treatment. Three sets of mice were used for this experiment, where set 1 was sampled at 2,4,8 hr; set 2 at 0.25, 0.75, 1.5 hr; set 3 at 0.5, 1 and 16 hr. Samples were centrifuged at 10,000 rpm for 2 minutes, plasma was removed and stored at -80°C until further analysis.
Briefly, parameters and the Fisher Information Matrix (FIM) were estimated using the stochastic approximation expectation maximization (SAEM) algorithm, and the final log-likelihood estimated with importance sampling, all using the default Monolix initial settings, except that 1000 iterations were permitted for estimation of FIM using stochastic approximation. A variety of models were fit to the respective compound’s Ct data, parameterized using apparent clearances, volumes of distribution, and absorption rate constant as needed. […] A log-normal inter-individual and inter-occasion parameter distribution was assumed on selected supported parameters, with both on- and off-diagonal elements of parameter covariance matrices tested. Additive and/or proportional error models were tested and implemented as supported. Beal’s M3 method was used to fit any data that were below the LLOQ or above the upper limit of the assay range [20]. […] Additionally, Wald test P values were outputted for each covariate effect by the Monolix software.
Additionally, Wald test P values were outputted for each covariate effect by the Monolix software.

[2] = Plasma DEX concentrations on discontinuous oral DEX regimen in drinking water (Fig 3); format: in vivo, mouse; settings: for concentration at 3.5 day / concentration at 10.5 day / concentration at 17.5 day: C57BL/6, mouse, oral, 8 mg/L, Dexamethasone conc; for observed systemic (plasma) concentrations of DEX, range: mice on the discontinuous DEX regimen
Protocol: as §1
Sidak’s multiple comparison test (**p<0.01, ****p<0.0001) was used to further analyze the effect of vitamin D status at each time point.

C[C@@H]1C[C@H]2[C@@H]3CCC4=CC(=O)C=C[C@]4(C)[C@@]3(F)[C@@H](O)C[C@]2(C)[C@@]1(O)C(=O)CO [DEX, dexamethasone]
share of mice with measurable DEX ([1]; female VD3 deficient): 100%
share of mice with DEX plasma concentration below LLOQ ([1]; female VD3 sufficient): 68%
concentration at 3.5 days ([1]; female, C57BL/6, mouse, plasma, oral, 8 mg/L in drinking water, DEX conc, individual mouse, repeated study, VD3 Suf, 3.5 Days): 0.0528 µM
concentration at 10.5 days ([1]; female, C57BL/6, mouse, plasma, oral, 8 mg/L in drinking water, DEX conc, individual mouse, repeated study, VD3 Suf, 10.5 Days): 0.00684 µM
concentration at 3.5 day ([1]; female, C57BL/6, mouse, plasma, oral, DEX conc, plasma, repeated study, VD3 Deficient, F, Day 3.5, n=15): 0.0518 ± 0.0868 µM
concentration at 10.5 day ([1]; female, C57BL/6, mouse, plasma, oral, DEX conc, plasma, repeated study, VD3 Deficient, F, Day 10.5, n=10): 0.116 ± 0.169 µM
concentration at 17.5 day ([1]; female, C57BL/6, mouse, plasma, oral, DEX conc, plasma, repeated study, VD3 Deficient, F, Day 17.5, n=5): 0.106 ± 0.0655 µM
concentration at 3.5 day ([1]; female, C57BL/6, mouse, plasma, oral, DEX conc, plasma, repeated study, VD3 Sufficient, F, Day 3.5, n=5): 0.0472 ± 0.00915 µM
concentration at 10.5 day ([1]; female, C57BL/6, mouse, plasma, oral, DEX conc, plasma, repeated study, VD3 Sufficient, F, Day 10.5, n=3): 0.00771 ± 0.00112 µM
concentration at 17.5 day ([1]; female, C57BL/6, mouse, plasma, oral, DEX conc, plasma, repeated study, VD3 Sufficient, F, Day 17.5, n=5): 0.0456 ± 0.0272 µM
% BLQ ([1]; female, VD3 Def, 3.5 Days): 0%
% BLQ ([1]; female, VD3 Def, 10.5 Days): 0%
% BLQ ([1]; female, VD3 Def, 17.5 Days): 0%
% BLQ ([1]; female, VD3 Suf, 3.5 Days): 67%
% BLQ ([1]; female, VD3 Suf, 10.5 Days): 70%
% BLQ ([1]; female, VD3 Suf, 17.5 Days): 0%
share of mice with measurable DEX ([1]; male VD3 deficient): 96.5%
share of mice with DEX plasma concentration below LLOQ ([1]; male VD3 sufficient): 83%
concentration at 3.5 day ([1]; male, C57BL/6, mouse, plasma, oral, DEX conc, plasma, repeated study, VD3 Deficient, M, Day 3.5, n=13): 0.016 ± 0.0166 µM
concentration at 10.5 day ([1]; male, C57BL/6, mouse, plasma, oral, DEX conc, plasma, repeated study, VD3 Deficient, M, Day 10.5, n=10): 0.0487 ± 0.0594 µM
concentration at 17.5 day ([1]; male, C57BL/6, mouse, plasma, oral, DEX conc, plasma, repeated study, VD3 Deficient, M, Day 17.5, n=5): 0.0167 ± 0.00719 µM
concentration at 3.5 day ([1]; male, C57BL/6, mouse, plasma, oral, DEX conc, plasma, repeated study, VD3 Sufficient, M, Day 3.5, n=5): 0.0301 ± 0.0144 µM
concentration at 17.5 day ([1]; male, C57BL/6, mouse, plasma, oral, DEX conc, plasma, repeated study, VD3 Sufficient, M, Day 17.5, n=5): 0.0252 ± 0.0082 µM
% BLQ ([1]; male, VD3 Def, 10.5 Days): 0%
% BLQ ([1]; male, VD3 Def, 17.5 Days): 0%
% BLQ ([1]; male, VD3 Suf, 10.5 Days): 100%
% BLQ ([1]; male, VD3 Suf, 17.5 Days): 0%
DEX conc, Average ± S.D. of quantifiable samples ([1]; plasma, repeated study, VD3 Deficient, F, Day 3.5, n=15): 51.832 nM
DEX conc, Average ± S.D. of quantifiable samples ([1]; plasma, repeated study, VD3 Deficient, F, Day 10.5, n=10): 116.245 nM
DEX conc, Average ± S.D. of quantifiable samples ([1]; plasma, repeated study, VD3 Deficient, F, Day 17.5, n=5): 105.912 nM
DEX conc, Average ± S.D. of quantifiable samples ([1]; plasma, repeated study, VD3 Deficient, M, Day 3.5, n=13): 15.9992 nM
DEX conc, Average ± S.D. of quantifiable samples ([1]; plasma, repeated study, VD3 Deficient, M, Day 10.5, n=10): 48.71 nM
DEX conc, Average ± S.D. of quantifiable samples ([1]; plasma, repeated study, VD3 Deficient, M, Day 17.5, n=5): 16.66 nM
DEX conc, Average ± S.D. of quantifiable samples ([1]; plasma, repeated study, VD3 Sufficient, F, Day 3.5, n=5): 47.222 nM
DEX conc, Average ± S.D. of quantifiable samples ([1]; plasma, repeated study, VD3 Sufficient, F, Day 10.5, n=3): 7.71 nM
DEX conc, Average ± S.D. of quantifiable samples ([1]; plasma, repeated study, VD3 Sufficient, F, Day 17.5, n=5): 45.604 nM
DEX conc, Average ± S.D. of quantifiable samples ([1]; plasma, repeated study, VD3 Sufficient, M, Day 3.5, n=5): 30.144 nM
DEX conc, Average ± S.D. of quantifiable samples ([1]; plasma, repeated study, VD3 Sufficient, M, Day 17.5, n=5): 25.19 nM
DEX conc, individual mouse ([1]; plasma, repeated study, female, VD3 Suf, 3.5 Days): BLQ (BLQ = BELOW the LLOQ, lower lmit of quantification = 5 nM dexamethasone)
DEX conc, individual mouse ([1]; plasma, repeated study, female, VD3 Suf, 10.5 Days): BLQ (BLQ = BELOW the LLOQ, lower lmit of quantification = 5 nM dexamethasone)
DEX conc, individual mouse ([1]; plasma, repeated study, male, VD3 Def, 3.5 Days): 9.88 nM and 17.04 nM and 5.32 nM and 11.52 nM and 38.23 nM and BLQ (BLQ = BELOW the LLOQ, lower lmit of quantification = 5 nM dexamethasone) and 6.47 nM and 59.55 nM and 8.86 nM and 29.02 nM and 4.39 nM and 6.91 nM
DEX conc, individual mouse ([1]; plasma, repeated study, male, VD3 Def, 10.5 Days): 19.46 nM and 37.99 nM and 211.48 nM and 27.59 nM and 28.34 nM and 9.45 nM and 27.41 nM
DEX conc, individual mouse ([1]; plasma, repeated study, male, VD3 Def, 17.5 Days): 12.05 nM and 27.36 nM
DEX conc, individual mouse ([1]; plasma, repeated study, male, VD3 Suf, 3.5 Days): BLQ (BLQ = BELOW the LLOQ, lower lmit of quantification = 5 nM dexamethasone)
DEX conc, individual mouse ([1]; plasma, repeated study, male, VD3 Suf, 10.5 Days): BLQ (BLQ = BELOW the LLOQ, lower lmit of quantification = 5 nM dexamethasone)
DEX conc, individual mouse ([1]; plasma, repeated study, male, VD3 Suf, 17.5 Days): 22.35 nM and 12.66 nM and 32.4 nM and 32.15 nM and 26.39 nM
% BLQ ([1]; share of plasma samples below LLOQ 5 nM, male, VD3 Suf, 3.5 Days): 67%
concentration at 2 h (in vivo): 0.676 µg/mL
estimated Cgut (gut concentration) ([2]; discontinuous DEX in drinking water, assuming mice drink 200–400 μl/hr): 7 to 10 µM and 7.6 to 10.1 µM
concentration at 3.5 day ([2]; female, plasma, avg, VD3 deficient, D3.5, n=5): 0.078 µM
concentration at 10.5 day ([2]; female, plasma, avg, VD3 deficient, D10.5, n=4): 0.063 µM
concentration at 17.5 day ([2]; female, plasma, avg, VD3 deficient, D17.5, n=4): 0.0585 µM
concentration at 3.5 day ([2]; female, plasma, avg, VD3 sufficient, D3.5, n=5): 0.0993 µM
concentration at 10.5 day ([2]; female, plasma, avg, VD3 sufficient, D10.5, n=4): 0.0527 µM
concentration at 17.5 day ([2]; female, plasma, avg, VD3 sufficient, D17.5, n=5): 0.0387 µM
concentration at 10.5 day ([2]; female, plasma, individual mouse, VD3 deficient (GCD), D10.5): 0.0586 µM
concentration at 3.5 day ([2]; female, plasma, individual mouse, VD3 sufficient (MRE), D3.5): 0.0956 µM
concentration at 10.5 day ([2]; female, plasma, individual mouse, VD3 sufficient (MRE), D10.5): 0.0499 µM
concentration at 3.5 day ([2]; male, plasma, avg, plasma, male, VD3 deficient, day 3.5, n=8): 0.0317 µM
concentration at 10.5 day ([2]; male, plasma, avg, plasma, male, VD3 deficient, day 10.5, n=13): 0.0253 µM
concentration at 17.5 day ([2]; male, plasma, avg, plasma, male, VD3 deficient, day 17.5, n=13): 0.0131 µM
concentration at 3.5 day ([2]; male, plasma, avg, plasma, male, VD3 sufficient, day 3.5, n=11): 0.0124 µM
concentration at 10.5 day ([2]; male, plasma, avg, plasma, male, VD3 sufficient, day 10.5, n=11): 0.018 µM
concentration at 17.5 day ([2]; male, plasma, avg, plasma, male, VD3 sufficient, day 17.5, n=11): 0.0133 µM
observed systemic (plasma) concentrations of DEX, range [2]: 2.6 to 201.5 nM
observed systemic (plasma) concentrations of DEX, range ([2]; listed as Dexamethasone): 2 to 200 nM
Dexamethasone conc, individual mouse ([2]; plasma, female, VD3 deficient (GCD), D3.5): 88.42 nM and 34.10 nM and 126.21 nM and 104.66 nM and 36.85 nM
Dexamethasone conc, individual mouse ([2]; plasma, female, VD3 deficient (GCD), D10.5): 55.47 nM and 71.15 nM and 66.95 nM
Dexamethasone conc, individual mouse ([2]; plasma, female, VD3 deficient (GCD), D17.5): 84.72 nM and 78.40 nM and 26.56 nM and 44.39 nM
Dexamethasone conc, individual mouse ([2]; plasma, female, VD3 sufficient (MRE), D3.5): 94.88 nM and 116.14 nM and 126.22 nM and 63.45 nM
Dexamethasone conc, individual mouse ([2]; plasma, female, VD3 sufficient (MRE), D10.5): 50.92 nM and 57.26 nM
Dexamethasone conc, individual mouse ([2]; plasma, female, VD3 sufficient (MRE), D17.5): 24.99 nM and 23.28 nM and 21.33 nM and 61.18 nM and 62.62 nM
Dexamethasone conc, individual mouse ([2]; plasma, male, VD3 deficient (GCD), 3.5 Days, discontinuous DEX in drinking water): 28.49 nM and 21.78 nM and 23.16 nM and 14.22 nM and 52.94 nM and 69.07 nM and 12.19 nM
Dexamethasone conc, individual mouse ([2]; plasma, male, VD3 deficient (GCD), 10.5 Days): 24.64 nM and 18.60 nM and 35.12 nM and 50.14 nM and 22.77 nM and 19.09 nM and 13.20 nM and 32.61 nM and 4.50 nM and 20.98 nM and 51.76 nM and 9.92 nM
Dexamethasone conc, individual mouse ([2]; plasma, male, VD3 deficient (GCD), 17.5 Days): 7.03 nM and 9.03 nM and 37.95 nM and 11.09 nM and 12.27 nM and 10.43 nM and 10.75 nM and 8.20 nM and 7.99 nM and 10.52 nM and 14.43 nM and 17.77 nM
Dexamethasone conc, avg ([2]; plasma, male, VD3 deficient, day 3.5, n=8): 31.70 nM
Dexamethasone conc, individual mouse ([2]; plasma, male, VD3 sufficient (MRE), 3.5 Days): 10.97 nM and 6.41 nM and 7.05 nM and BLQ (BLQ = BELOW the LLOQ, lower lmit of quantification = 5 nM dexamethasone) and 3.62 nM and 34.11 nM
Dexamethasone conc, individual mouse ([2]; plasma, male, VD3 sufficient (MRE), 10.5 Days): 56.24 nM and 2.95 nM and 2.63 nM and 10.01 nM and 12.14 nM and BLQ (BLQ = BELOW the LLOQ, lower lmit of quantification = 5 nM dexamethasone) and 34.37 nM and 7.89 nM
Dexamethasone conc, individual mouse ([2]; plasma, male, VD3 sufficient (MRE), 17.5 Days): 9.70 nM and 6.19 nM and 17.34 nM and 10.75 nM and 11.40 nM and 11.09 nM and 17.17 nM and 6.62 nM and 29.23 nM
